Values of other authors, collected in publication PMC5548886 (Cancer Medicine, 2017).

Columns and labels:
[1] = test system: advanced or metastatic melanoma; settings: phase II trial; cited from earlier work
pERK = test system: pERK; parameters: method as in PMID 20823850; settings: at the recommended phase II dose; cited from earlier work

| SMILES | response rate [1] | pERK suppression (pERK) |
| --- | --- | --- |
| CNC(=O)c1ccccc1Sc1ccc2c(/C=C/c3ccccn3)n[nH]c2c1 [axitinib] | ~ 19% |  |
| CCCS(=O)(=O)Nc1ccc(F)c(C(=O)c2c[nH]c3ncc(-c4ccc(Cl)cc4)cc23)c1F [vemurafenib] |  | over 80% |
